Experimental data: paper PMC10996005, “Identification and Development of Cyclic Peptide Inhibitors of Hypoxia Inducible Factors 1 and 2 That Disrupt Hypoxia-Response Signaling in Cancer Cells” (Journal of the American Chemical Society, 2024)
Where a SMILES comes first, the peptide text is derived from it. [ ]: non-standard residue; d: D form. Phe(4-Br) = N[C@@H](Cc1ccc(Br)cc1)C(=O)O; Phe(4-CN) = N#Cc1ccc(C[C@H](N)C(=O)O)cc1; Phe(4-Cl) = N[C@@H](Cc1ccc(Cl)cc1)C(=O)O; Phe(4-I) = N[C@@H](Cc1ccc(I)cc1)C(=O)O; hPhe = N[C@@H](CCc1ccccc1)C(=O)O; 4Pal = N[C@@H](Cc1ccncc1)C(=O)O; hLeu = CC(C)CC[C@H](N)C(=O)O; Nle = CCCC[C@H](N)C(=O)O; Abu = CC[C@H](N)C(=O)O; Aib = CC(C)(N)C(=O)O

How the values were obtained:
HIF-1α PAS-B domain = target: T1, HIF-1α PAS-B domain (Homo sapiens, UniProt Q16665); assay: MST binding to the PAS-B domain of HIF-1α; conditions: for Kd: MST, mean ± SEM, n = 2 (n = 1 for most C1 analogues, n = 3 in Figure S2), read-out: KD for HIF-1α PAS-B
T1 construct: made in house
T1 sequence (Q16665 238-349 limits assumed): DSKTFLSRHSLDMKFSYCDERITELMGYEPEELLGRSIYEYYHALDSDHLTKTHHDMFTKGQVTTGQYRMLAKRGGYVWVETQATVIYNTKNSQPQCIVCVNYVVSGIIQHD
Method: (§1) All reagents were purchased from Fisher Scientific or Sigma Aldrich UK unless specified otherwise.
(§2) Restriction enzymes and microbiology reagents were purchased from New England Biolabs Inc., Fisher Scientific (UK) or Promega (UK) and were used as directed by the manufacturer. Primers and oligonucleotides were synthesised by Integrated DNA Technologies (UK). DNA sequencing was carried out by Eurofins MWG Operon (Germany).
(§3) Construction of the RTHS and SICLOPPS library, screening, purification of recombinant HIF proteins, and the PLA was conducted as previously described in Miranda et al., J. Am. Chem. Soc., 2013, 135(28); […]
(§4) Protein labelling with MST dye
(§5) Protein was buffer exchanged from storage buffer into labelling buffer (0.1 M NaHCO3, pH 8.5) using a PD spintrap G-25 column (GE healthcare). The protein concentration was then adjusted to 20 µM.
(§6) The commercially sourced MST dye (NanoTemper) was prepared as a 470 µM solution in DMSO, which was then further diluted to 60 µM using labelling buffer. To the protein solution was added an equal volume of dye solution, and the labelling reaction was left for 1 hour in the dark at room temperature.
(§7) The labelled protein was separated from unreacted dye by elution through a PD minitrap G-25 column (GE healthcare). Labelled protein was then aliquoted and stored at -80 °C. Extent of labelling was measured by the absorbance obtained using the UV-vis mode on a NanoDrop ND-1000 Spectrophotometer (NanoDrop Technologies, USA).
(§8) Labelled protein was thawed on ice and diluted to 50 nM in assay buffer containing 50 mM Tris pH 8.0, 150 mM NaCl, 5% (v/v) glycerol, 1 mM TCEP and 0.05% TWEEN-20. The protein solution was then centrifuged at 12000 rpm for 15 minutes at 4 °C and left on ice. Compounds were prepared and serially diluted in DMSO at 10x assay concentration, before diluting to 2x assay concentration in assay buffer.
(§9) The 2x compound solutions were then mixed 1:1 (v/v) with 50 nM labelled protein solution and left to incubate for 1 hour at room temperature. Solutions were then loaded into Monolith NT.115 Premium Capillaries (NanoTemper) and placed in the sample tray. MST experiments were carried out

HIF-2α PAS-B domain = target: T2, HIF-2α PAS-B domain (Homo sapiens, UniProt Q99814); assay: MST binding to the PAS-B domain of HIF-2α; conditions: MST; mean (n = 2) ± SEM
T2 construct: made in house
T2 sequence (Q99814 240-350 limits assumed): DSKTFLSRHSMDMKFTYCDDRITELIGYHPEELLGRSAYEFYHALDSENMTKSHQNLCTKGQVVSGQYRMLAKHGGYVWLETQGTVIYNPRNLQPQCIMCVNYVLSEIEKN
Method: as §1, §2, §3, §4, §5, §6, §7, §8, §9

Kd (HIF-1α PAS-B domain) | further results | Compound
> 50 µM | – | CC[C@H](C)[C@@H]1NC(=O)[C@H](CC(C)C)NC(=O)[C@H](CCCNC(=N)N)NC(=O)[C@H](CSC)NC(=O)[C@H](Cc2ccccc2)NC(=O)[C@H]([C@@H](C)CC)NC1=O [C(Me), cyclo-C(Me)RLIIF] (cyclo(C(Me)RLIIF))
73.4 ± 4.8 µM | – | CC[C@@H]1NC(=O)[C@H]([C@@H](C)CC)NC(=O)[C@H](CC(C)C)NC(=O)[C@H](CCCNC(=N)N)NC(=O)[C@H](CS)NC(=O)[C@H](Cc2ccccc2)NC1=O [Abu, cyclo-CRLIAbuF] (cyclo([Abu]FCRLI))
11.4 ± 0.4 µM | – | CC[C@H](C)[C@@H]1NC(=O)[C@H](CC(C)C)NC(=O)[C@H](CCCNC(=N)N)NC(=O)[C@H](CS)NC(=O)[C@H](Cc2ccccc2)NC(=O)[C@H](CC(C)C)NC1=O [L, cyclo-CRLILF] (cyclo(CRLILF))
21.5 ± 3 µM | improvement in HIF-1α affinity over the parent tripeptide (HIF-1α PAS-B domain; MST KD ratio vs Ac-IFC-NH2): ~3 fold | CC[C@H](C)[C@H](NC(C)=O)C(=O)N[C@@H](Cc1ccc(I)cc1)C(=O)N[C@@H](CS)C(N)=O [Ac-I(4-iodo)FC-NH2] (Ac-Ile-[Phe(4-I)]-Cys-NH2)
– | Kd (HIF-2α PAS-B domain): 10.9 ± 1.1 µM | CC[C@H](C)[C@@H]1NC(=O)[C@H](CC(C)C)NC(=O)[C@H](CCCNC(=N)N)NC(=O)[C@H](CS)NC(=O)[C@H](Cc2ccccc2)NC(=O)[C@H]([C@@H](C)CC)NC1=O [cyclo-CRLIIF] (cyclo(CRLIIF))
– | loss of affinity (KD) compared to cyclo-CRLIIF (HIF-1α PAS-B domain; MST KD ratio): ~10 fold | CC[C@H](C)[C@H](NC(C)=O)C(=O)N[C@@H](Cc1ccccc1)C(=O)N[C@@H](CS)C(N)=O [Ac-IFC-NH2] (Ac-Ile-Phe-Cys-NH2)
4.4 ± 1.3 µM | – | CC[C@H](C)[C@@H]1NC(=O)[C@H](CC(C)C)NC(=O)[C@H](CCCNC(=N)N)NC(=O)[C@H](CS)NC(=O)[C@H](Cc2ccccc2)NC(=O)[C@H](CCC(C)C)NC1=O [hL, cyclo-CRLIhLF] (cyclo(CRLI[hLeu]F))
1.2 ± 0.7 µM | improvement in HIF-1α binding affinity compared to the parent cyclic peptide cyclo-CRLIIF (HIF-1α PAS-B domain; MST KD ratio): 3 fold | CC[C@H](C)[C@@H]1NC(=O)[C@H](CC(C)C)NC(=O)[C@H](CCCNC(=N)N)NC(=O)[C@H](CS)NC(=O)[C@H](CCc2ccccc2)NC(=O)[C@H]([C@@H](C)CC)NC1=O [hF, cyclo-CRLIIhF] (cyclo(CRLII[hPhe]))
4.4 ± 0.1 µM | – | CC[C@H](C)[C@@H]1NC(=O)[C@H](CC(C)C)NC(=O)[C@H](CCCNC(=N)N)NC(=O)[C@H](CS)NC(=O)[C@H](Cc2ccc(C#N)cc2)NC(=O)[C@H]([C@@H](C)CC)NC1=O [CN, cyclo-CRLII(4-CN)F] (cyclo(CRLII[Phe(4-CN)]))
7.5 ± 0.9 µM | – | CCCC[C@@H]1NC(=O)[C@H]([C@@H](C)CC)NC(=O)[C@H](CC(C)C)NC(=O)[C@H](CCCNC(=N)N)NC(=O)[C@H](CS)NC(=O)[C@H](Cc2ccccc2)NC1=O [Nle, cyclo-CRLINleF] (cyclo(CRLI[Nle]F))
22.4 ± 0.1 µM | – | CC[C@H](C)[C@@H]1NC(=O)[C@H](CC(C)C)NC(=O)[C@H](CCCNC(=N)N)NC(=O)[C@H](CS)NC(=O)[C@H](Cc2ccccc2)NC(=O)C(C)(C)NC1=O [Aib, cyclo-CRLIAibF] (cyclo([Aib]FCRLI))
> 100 µM | – | CC[C@H](C)[C@@H]1NC(=O)[C@H](CC(C)C)NC(=O)[C@H](CCCNC(=N)N)NC(=O)[C@H](CCSC)NC(=O)[C@H](Cc2ccccc2)NC(=O)[C@H]([C@@H](C)CC)NC1=O [M, cyclo-MRLIIF] (cyclo(FMRLII))
– | loss of affinity (KD) compared to cyclo-CRLIIF (HIF-1α PAS-B domain; MST KD ratio): ~11 fold | CC[C@H](C)[C@@H]1NC(=O)[C@H](CC(C)C)NC(=O)[C@H](CCCNC(=N)N)NC(=O)[C@H](CS)NC(=O)[C@H](Cc2ccncc2)NC(=O)[C@H]([C@@H](C)CC)NC1=O [4-Pal, cyclo-CRLII(4-Pal)] (cyclo([4Pal]CRLII))
1 ± 0.2 µM | – | CC[C@H](C)[C@@H]1NC(=O)[C@H](CC(C)C)NC(=O)[C@H](CCCNC(=N)N)NC(=O)[C@H](CS)NC(=O)[C@H](Cc2ccc(Br)cc2)NC(=O)[C@H]([C@@H](C)CC)NC1=O [Br, cyclo-CRLII(4-Br)F] (cyclo(CRLII[Phe(4-Br)]))
1.2 ± 0.3 µM | – | CC[C@H](C)[C@@H]1NC(=O)[C@H](CC(C)C)NC(=O)[C@H](CCCNC(=N)N)NC(=O)[C@H](CS)NC(=O)[C@H](Cc2ccc(Cl)cc2)NC(=O)[C@H]([C@@H](C)CC)NC1=O [Cl, cyclo-CRLII(4-Cl)F] (cyclo(CRLII[Phe(4-Cl)]))
